Measurements taken from publication PMC4755721 (Chemical research in toxicology, 2015).
Entries after “also recorded” stand apart in the source; their conditions may differ. Where two headings read alike, the source gives them in different places.

Tests used:
P450 2A6 [1] = biological target: T1, P450 2A6 (Homo sapiens, UniProt P11509); assay: Oxidation by P450 2A6; format: in vitro ADME; conditions: 50 µM substrate, reconstituted system, LC-MS
T1 sequence (P11509 1-494): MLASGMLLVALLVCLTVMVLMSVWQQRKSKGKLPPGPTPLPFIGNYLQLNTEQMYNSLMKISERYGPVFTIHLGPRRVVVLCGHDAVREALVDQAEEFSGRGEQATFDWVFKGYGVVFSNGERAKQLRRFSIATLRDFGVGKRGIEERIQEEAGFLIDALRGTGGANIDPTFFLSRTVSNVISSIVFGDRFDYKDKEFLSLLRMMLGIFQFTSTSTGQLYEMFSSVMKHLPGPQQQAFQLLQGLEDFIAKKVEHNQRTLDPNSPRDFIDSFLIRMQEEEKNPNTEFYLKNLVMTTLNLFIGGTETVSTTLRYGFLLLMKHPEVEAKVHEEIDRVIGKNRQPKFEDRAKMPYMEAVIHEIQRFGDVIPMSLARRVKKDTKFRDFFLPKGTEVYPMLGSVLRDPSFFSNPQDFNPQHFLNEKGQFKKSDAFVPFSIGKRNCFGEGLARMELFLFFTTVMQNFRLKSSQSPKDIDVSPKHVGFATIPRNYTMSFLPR

P450 2A13 [2] = biological target: T2, P450 2A13 (Homo sapiens, UniProt Q16696); assay: Oxidation by P450 2A13; format: in vitro ADME; conditions: 50 µM substrate, reconstituted system, LC-MS
T2 sequence (Q16696 1-494): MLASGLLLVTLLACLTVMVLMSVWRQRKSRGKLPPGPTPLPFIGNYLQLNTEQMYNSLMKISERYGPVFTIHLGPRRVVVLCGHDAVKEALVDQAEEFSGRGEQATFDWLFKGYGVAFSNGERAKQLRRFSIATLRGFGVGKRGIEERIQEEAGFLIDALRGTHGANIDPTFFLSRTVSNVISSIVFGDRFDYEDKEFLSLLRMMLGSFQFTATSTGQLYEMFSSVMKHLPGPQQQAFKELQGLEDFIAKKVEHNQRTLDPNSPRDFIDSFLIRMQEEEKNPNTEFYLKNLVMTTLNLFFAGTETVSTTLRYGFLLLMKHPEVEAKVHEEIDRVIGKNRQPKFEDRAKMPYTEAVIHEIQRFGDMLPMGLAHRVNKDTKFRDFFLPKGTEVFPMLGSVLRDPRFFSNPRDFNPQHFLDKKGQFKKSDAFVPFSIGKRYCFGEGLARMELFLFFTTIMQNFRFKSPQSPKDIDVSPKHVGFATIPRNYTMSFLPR

P450 2A6 [3] = biological target: T1, P450 2A6; assay: Spectral binding titration with P450 2A6
P450 2A13 [4] = biological target: T2, P450 2A13; assay: Spectral binding titration with P450 2A13
P450 3A4 = P450 3A4 (Homo sapiens, UniProt P08684); assay: Spectral binding titration with P450 3A4
P450 1B1 = biological target: T3, P450 1B1 (Homo sapiens, UniProt Q16678); assay: Spectral binding titration with P450 1B1
T3 sequence (Q16678 1-543): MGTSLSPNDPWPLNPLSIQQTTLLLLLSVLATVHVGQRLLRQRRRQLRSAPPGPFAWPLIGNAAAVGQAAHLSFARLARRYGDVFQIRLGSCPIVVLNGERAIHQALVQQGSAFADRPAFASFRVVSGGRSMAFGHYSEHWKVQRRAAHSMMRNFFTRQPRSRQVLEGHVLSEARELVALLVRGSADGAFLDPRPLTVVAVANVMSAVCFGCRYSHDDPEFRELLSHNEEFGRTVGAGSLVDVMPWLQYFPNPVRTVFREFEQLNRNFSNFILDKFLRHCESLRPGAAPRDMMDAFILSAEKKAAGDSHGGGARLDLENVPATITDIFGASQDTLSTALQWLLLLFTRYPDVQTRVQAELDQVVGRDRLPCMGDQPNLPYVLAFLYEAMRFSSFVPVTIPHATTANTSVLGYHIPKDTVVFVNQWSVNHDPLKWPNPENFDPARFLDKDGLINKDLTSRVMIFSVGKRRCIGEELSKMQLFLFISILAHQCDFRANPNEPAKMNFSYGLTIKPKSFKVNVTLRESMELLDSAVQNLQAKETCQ

P450 1A2 = biological target: T4, P450 1A2 (Homo sapiens, UniProt P05177); assay: Spectral binding titration with P450 1A2
T4 sequence (P05177 1-516): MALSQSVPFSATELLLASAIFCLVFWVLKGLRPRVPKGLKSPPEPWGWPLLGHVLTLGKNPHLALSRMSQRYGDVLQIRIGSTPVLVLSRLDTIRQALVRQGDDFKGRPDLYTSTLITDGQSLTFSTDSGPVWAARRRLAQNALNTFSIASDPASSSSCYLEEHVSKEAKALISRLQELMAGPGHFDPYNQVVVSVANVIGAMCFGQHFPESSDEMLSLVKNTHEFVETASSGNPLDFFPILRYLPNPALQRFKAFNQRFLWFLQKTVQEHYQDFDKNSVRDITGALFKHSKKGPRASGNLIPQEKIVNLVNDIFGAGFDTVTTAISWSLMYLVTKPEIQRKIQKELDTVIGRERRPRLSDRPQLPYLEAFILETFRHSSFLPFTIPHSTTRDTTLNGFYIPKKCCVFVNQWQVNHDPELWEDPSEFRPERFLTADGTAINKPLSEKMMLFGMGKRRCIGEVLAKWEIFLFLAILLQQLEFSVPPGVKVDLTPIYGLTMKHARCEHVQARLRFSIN

P450 2C9 = P450 2C9 (Homo sapiens, UniProt P11712); assay: Spectral binding titration with P450 2C9
S. typhimurium NM2009 = assay: Genotoxicity assay, induction of umu gene expression; format: cell-based, Salmonella typhimurium; conditions: for genotoxic activity (induction of umu gene expression): 0-160 µM, without P450; for cytotoxic activity: at concentrations of 80 and 160 µM, tester strain NM2009
P450 2A6 [5] = biological target: T1, P450 2A6; conditions: cited from earlier work
P450 2A13 [6] = biological target: T2, P450 2A13; conditions: cited from earlier work
P450 2A6 [7] = conditions: cited from earlier work
P450 2A13 [8] = conditions: cited from earlier work
[9] = tested on: Salmonella typhimurium TA1537 and TA1538; conditions: cited from earlier work
HepG2 = conditions: cited from earlier work
S. typhimurium TA120 = conditions: photomutagenesis assay; cited from earlier work
[10] = non-classifiable as to carcinogenicity to humans; cited from earlier work
S. typhimurium TM677 = conditions: cited from earlier work

P450 3A4, sequence (P08684 whole entry): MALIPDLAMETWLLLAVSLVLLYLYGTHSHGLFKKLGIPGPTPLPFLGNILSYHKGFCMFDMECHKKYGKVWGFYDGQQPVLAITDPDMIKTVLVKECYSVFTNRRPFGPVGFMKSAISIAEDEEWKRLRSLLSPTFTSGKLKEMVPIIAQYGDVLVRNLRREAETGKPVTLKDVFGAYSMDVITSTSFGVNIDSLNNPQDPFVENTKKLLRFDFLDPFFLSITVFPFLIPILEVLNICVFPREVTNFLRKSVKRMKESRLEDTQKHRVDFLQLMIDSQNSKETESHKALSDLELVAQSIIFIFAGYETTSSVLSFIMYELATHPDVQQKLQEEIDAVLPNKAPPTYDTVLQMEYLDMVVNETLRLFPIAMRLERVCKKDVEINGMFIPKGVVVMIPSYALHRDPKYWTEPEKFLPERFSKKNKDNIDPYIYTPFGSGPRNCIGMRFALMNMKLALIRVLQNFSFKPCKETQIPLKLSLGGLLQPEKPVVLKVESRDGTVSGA
P450 2C9, sequence (P11712 whole entry): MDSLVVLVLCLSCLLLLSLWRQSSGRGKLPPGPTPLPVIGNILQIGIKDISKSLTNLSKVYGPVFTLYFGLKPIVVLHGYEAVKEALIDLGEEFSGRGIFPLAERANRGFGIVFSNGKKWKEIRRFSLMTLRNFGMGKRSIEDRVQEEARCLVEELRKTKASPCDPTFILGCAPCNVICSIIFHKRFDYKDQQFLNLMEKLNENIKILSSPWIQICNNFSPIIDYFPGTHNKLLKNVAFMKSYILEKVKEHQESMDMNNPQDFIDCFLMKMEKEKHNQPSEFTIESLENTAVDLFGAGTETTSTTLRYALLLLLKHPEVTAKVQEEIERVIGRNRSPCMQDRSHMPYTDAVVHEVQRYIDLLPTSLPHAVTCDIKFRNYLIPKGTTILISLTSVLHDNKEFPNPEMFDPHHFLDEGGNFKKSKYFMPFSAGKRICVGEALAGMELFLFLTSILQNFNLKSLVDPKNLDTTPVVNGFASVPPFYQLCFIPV

c1cc2c3c(cccc3c1)C1OC21 (centres unmarked) [1,2-epoxyacenaphthene, 1,2-Epoxyacenaphthene]
further oxidation by P450 2A6 (P450 2A6 [1]): further oxidized
further oxidation by P450 2A13 (P450 2A13 [2]): to a small extent
Kd (P450 2A6 [3]; Ks (spectral dissociation constant), P450 2A6, 1 µM P450, pH 7.4, ± SE): 1.78 ± 0.25 µM
binding spectra induced (P450 2A6 [3]; P450 2A6): Type I
ΔAmax / Ks (P450 2A6 [3]; P450 2A6): 0.035
ΔAmax (P450 2A6 [3]; P450 2A6, ± SE): 0.062 ± 0.002
Kd (P450 2A13 [4]): 0.16 ± 0.03 µM
binding spectra induced (P450 2A13 [4]; P450 2A13): Type I
ΔAmax / Ks (P450 2A13 [4]; P450 2A13): 0.46
ΔAmax (P450 2A13 [4]; P450 2A13, ± SE): 0.073 ± 0.002
Ks with P450 2A13 lower than with P450 2A6 (P450 2A13 [4]; P450 2A13 vs P450 2A6): ~ 10 fold
Kd (P450 3A4): 6.2 ± 0.87 µM
binding spectra induced (P450 3A4; P450 3A4): Type I
ΔAmax / Ks (P450 3A4; P450 3A4): 0.007
ΔAmax (P450 3A4; P450 3A4, ± SE): 0.041 ± 0.002
spectral changes (P450 1B1): did not show any spectral changes
spectral changes (P450 1A2): did not show any spectral changes
spectral changes (P450 2C9): did not show any spectral changes
genotoxic activity (induction of umu gene expression) (S. typhimurium NM2009): Neither these four PAHs induced umu gene expression; also recorded: none of these four chemicals showed any genotoxic activity
cytotoxic activity (S. typhimurium NM2009): 10-20%
genotoxicity after metabolic activation with P450 2A6 and 2A13 (S. typhimurium NM2009): negative results

OC1Cc2cccc3cccc1c23 (centres unmarked) [1-acenaphthenol]
binding spectra induced (P450 2A6 [3]; P450 2A6): very weak or undetectable
Kd (P450 2A13 [4]): 0.48 ± 0.03 µM
binding spectra induced (P450 2A13 [4]; P450 2A13): Type I
ΔAmax / Ks (P450 2A13 [4]; P450 2A13): 0.13
ΔAmax (P450 2A13 [4]; P450 2A13, ± SE): 0.061±0.001
Kd (P450 3A4): 7.8 ± 2.2 µM
binding spectra induced (P450 3A4; P450 3A4): very weak or undetectable
ΔAmax / Ks (P450 3A4; P450 3A4): 0.002
ΔAmax (P450 3A4; P450 3A4, ± SE): 0.013 ± 0.001
spectral changes (P450 1B1): did not show any spectral changes
spectral changes (P450 1A2): did not show any spectral changes
spectral changes (P450 2C9): did not show any spectral changes
genotoxic activity (induction of umu gene expression) (S. typhimurium NM2009): Neither these four PAHs induced umu gene expression; also recorded: none of these four chemicals showed any genotoxic activity
cytotoxic activity (S. typhimurium NM2009): 10-20%
genotoxicity after metabolic activation with P450 2A6 and 2A13 (S. typhimurium NM2009): negative results

c1cc2c3c(cccc3c1)CC2 [acenaphthene]
ΔAmax / Ks (P450 2A6 [3]; P450 2A6): 0.055
ΔAmax (P450 2A6 [3]; P450 2A6, ± SE): 0.066±0.002
ΔAmax / Ks (P450 2A13 [4]; P450 2A13): 0.15
ΔAmax (P450 2A13 [4]; P450 2A13, ± SE): 0.074±0.005
Kd (P450 3A4): 19 ± 3.5 µM
ΔAmax / Ks (P450 3A4; P450 3A4): 0.002
ΔAmax (P450 3A4; P450 3A4, ± SE): 0.040±0.003
genotoxic activity (induction of umu gene expression) (S. typhimurium NM2009): Neither these four PAHs induced umu gene expression
genotoxic activity (induction of umu gene expression) (S. typhimurium NM2009; listed as Acenaphthene): none of these four chemicals showed any genotoxic activity
cytotoxic activity (S. typhimurium NM2009): 10-20%
genotoxicity after metabolic activation with P450 2A6 and 2A13 (S. typhimurium NM2009): negative results
binding spectra induced (P450 2A6 [5]; P450 2A6): Type I
binding spectra induced (P450 2A13 [6]; P450 2A13): Type I
inhibition of coumarin 7-hydroxylation activity (P450 2A6 [7]; P450 2A6): inhibit
inhibition of coumarin 7-hydroxylation activity (P450 2A13 [8]; P450 2A13): inhibit
mutagenicity ([9]; TA1537 and TA1538): non-mutagenic
cytotoxicity (HepG2; human liver tumor cell lines and HepG2 in vitro): non-cytotoxic
photomutagenicity (S. typhimurium TA120): weakly mutagenic
IARC category [10]: Group 3

C1=Cc2cccc3cccc1c23 [acenaphthylene]
ΔAmax (P450 2A6 [3]): 0.076±0.002
ΔAmax / Ks (P450 2A6 [3]; P450 2A6): 0.017
ΔAmax (P450 2A13 [4]): 0.050±0.004
ΔAmax / Ks (P450 2A13 [4]; P450 2A13): 0.081
Kd (P450 3A4): 13 ± 2.7 µM
ΔAmax (P450 3A4): 0.030±0.002
ΔAmax / Ks (P450 3A4; P450 3A4): 0.002
genotoxic activity (induction of umu gene expression) (S. typhimurium NM2009): Neither these four PAHs induced umu gene expression; also recorded: none of these four chemicals showed any genotoxic activity
cytotoxic activity (S. typhimurium NM2009): 10-20%
genotoxicity after metabolic activation with P450 2A6 and 2A13 (S. typhimurium NM2009): negative results
binding spectra induced (P450 2A6 [5]): Type I
binding spectra induced (P450 2A13 [6]): Type I
inhibition of coumarin 7-hydroxylation activity (P450 2A6 [7]): inhibit
inhibition of coumarin 7-hydroxylation activity (P450 2A13 [8]): inhibit
mutagenicity [9]: non-mutagenic
cytotoxicity (HepG2): non-cytotoxic
photomutagenicity (S. typhimurium TA120): weakly mutagenic
mutagenicity (S. typhimurium TM677): mutagenic

Oc1ccc2c(cc3ccc4cccc5ccc2c3c45)c1O [benzo[a]pyrene-7,8-diol, reference compound]
umu gene expression after metabolic activation (positive control) (S. typhimurium NM2009; with P450 1B1, results not shown): induced umu gene expression
